Among the data in ChEMBL document CHEMBL3991601, “The target landscape of clinical kinase drugs” (Science, 2017) are Kd values, retold here.

In assay [1] the target is T1, Scaffold protein ILK (Homo sapiens, UniProt Q13418).
T1 sequence (Q13418 whole entry): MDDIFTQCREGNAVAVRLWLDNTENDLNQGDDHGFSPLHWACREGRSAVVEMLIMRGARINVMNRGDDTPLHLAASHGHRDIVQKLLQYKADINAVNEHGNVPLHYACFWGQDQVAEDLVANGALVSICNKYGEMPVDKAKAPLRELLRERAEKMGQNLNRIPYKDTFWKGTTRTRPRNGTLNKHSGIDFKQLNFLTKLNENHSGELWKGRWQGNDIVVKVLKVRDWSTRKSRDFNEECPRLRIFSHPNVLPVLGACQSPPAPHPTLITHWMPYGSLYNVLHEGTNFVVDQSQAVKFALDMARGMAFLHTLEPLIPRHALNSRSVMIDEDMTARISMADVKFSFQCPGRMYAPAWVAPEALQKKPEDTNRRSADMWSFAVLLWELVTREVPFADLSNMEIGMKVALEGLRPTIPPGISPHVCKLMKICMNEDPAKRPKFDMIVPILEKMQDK

For assay [2], the target named is Mitogen-activated protein kinase 11 (Homo sapiens, UniProt Q15759).
The target in assay [3] is T2, Mitogen-activated protein kinase kinase kinase 2 (Homo sapiens, UniProt Q9Y2U5).
T2 sequence (Q9Y2U5 whole entry): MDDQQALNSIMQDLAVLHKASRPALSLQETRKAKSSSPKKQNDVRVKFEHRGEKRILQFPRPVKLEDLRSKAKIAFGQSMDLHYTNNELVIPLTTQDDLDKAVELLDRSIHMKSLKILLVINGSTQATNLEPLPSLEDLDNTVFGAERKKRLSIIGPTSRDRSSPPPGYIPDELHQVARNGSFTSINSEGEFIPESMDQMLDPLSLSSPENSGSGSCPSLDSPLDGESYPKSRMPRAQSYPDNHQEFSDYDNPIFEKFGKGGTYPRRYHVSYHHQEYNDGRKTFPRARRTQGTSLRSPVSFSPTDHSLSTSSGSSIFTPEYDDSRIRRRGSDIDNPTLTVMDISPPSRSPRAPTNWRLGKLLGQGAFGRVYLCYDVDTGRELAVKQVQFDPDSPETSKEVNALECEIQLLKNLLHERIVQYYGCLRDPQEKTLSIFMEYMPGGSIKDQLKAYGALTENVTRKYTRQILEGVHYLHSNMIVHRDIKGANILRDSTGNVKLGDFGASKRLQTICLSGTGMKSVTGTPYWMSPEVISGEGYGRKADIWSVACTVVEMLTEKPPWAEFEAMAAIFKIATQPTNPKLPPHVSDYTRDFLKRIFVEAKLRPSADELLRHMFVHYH

Assay [4] concerns the target T3, Mitogen-activated protein kinase kinase kinase 5 (Homo sapiens, UniProt Q99683).
T3 sequence (Q99683 whole entry): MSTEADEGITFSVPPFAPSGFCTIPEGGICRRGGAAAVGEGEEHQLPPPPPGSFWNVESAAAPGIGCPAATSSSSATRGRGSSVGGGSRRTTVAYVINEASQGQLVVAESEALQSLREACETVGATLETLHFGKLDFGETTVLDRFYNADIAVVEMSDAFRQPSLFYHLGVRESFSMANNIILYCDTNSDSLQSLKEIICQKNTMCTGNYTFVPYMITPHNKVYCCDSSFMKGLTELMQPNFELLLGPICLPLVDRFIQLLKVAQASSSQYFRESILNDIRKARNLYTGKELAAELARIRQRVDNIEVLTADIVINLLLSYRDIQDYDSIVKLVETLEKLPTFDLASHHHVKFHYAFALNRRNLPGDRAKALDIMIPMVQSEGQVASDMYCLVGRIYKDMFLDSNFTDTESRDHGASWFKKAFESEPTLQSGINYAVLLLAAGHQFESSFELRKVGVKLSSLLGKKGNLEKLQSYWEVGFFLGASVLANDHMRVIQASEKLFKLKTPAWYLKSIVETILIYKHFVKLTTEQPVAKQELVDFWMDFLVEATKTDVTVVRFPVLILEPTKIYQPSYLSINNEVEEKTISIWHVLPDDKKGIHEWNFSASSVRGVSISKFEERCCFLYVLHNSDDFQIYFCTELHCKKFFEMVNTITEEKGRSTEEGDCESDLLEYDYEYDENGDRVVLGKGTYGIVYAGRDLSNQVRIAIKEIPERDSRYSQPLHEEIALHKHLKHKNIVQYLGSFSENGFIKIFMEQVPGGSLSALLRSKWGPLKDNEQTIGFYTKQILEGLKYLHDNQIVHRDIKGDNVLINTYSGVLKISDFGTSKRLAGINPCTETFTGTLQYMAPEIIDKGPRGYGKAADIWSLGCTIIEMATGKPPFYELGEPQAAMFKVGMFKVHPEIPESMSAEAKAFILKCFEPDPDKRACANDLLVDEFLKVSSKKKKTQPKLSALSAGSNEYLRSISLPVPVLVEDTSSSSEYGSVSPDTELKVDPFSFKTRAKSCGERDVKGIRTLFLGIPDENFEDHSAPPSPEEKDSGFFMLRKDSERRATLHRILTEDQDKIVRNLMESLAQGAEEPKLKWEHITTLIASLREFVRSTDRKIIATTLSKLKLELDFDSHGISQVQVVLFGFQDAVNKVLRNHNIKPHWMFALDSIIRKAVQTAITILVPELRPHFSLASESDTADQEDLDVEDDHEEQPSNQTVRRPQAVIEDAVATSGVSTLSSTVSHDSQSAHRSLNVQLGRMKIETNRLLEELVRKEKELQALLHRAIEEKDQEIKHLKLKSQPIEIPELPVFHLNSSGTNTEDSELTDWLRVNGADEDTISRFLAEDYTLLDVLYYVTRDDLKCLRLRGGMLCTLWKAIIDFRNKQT

For assay [5], the target named is LIM domain kinase 2 (Homo sapiens, UniProt P53671).
For assay [6], the target named is Activated CDC42 kinase 1 (Homo sapiens, UniProt Q07912).
The target of assay [7] is Myosin-14 (Homo sapiens, UniProt Q7Z406).
Assay [8] addresses Casein kinase I isoform alpha (Homo sapiens, UniProt P48729).
For assay [9], the target named is Bone morphogenetic protein receptor type-1A (Homo sapiens, UniProt P36894).
Assay [10] deals with Cyclin-dependent kinase 13 (Homo sapiens, UniProt Q14004).
Assay [11] deals with Chromodomain-helicase-DNA-binding protein 4 (Homo sapiens, UniProt Q14839).
Assay [12] has as its target Maternal embryonic leucine zipper kinase (Homo sapiens, UniProt Q14680).
For assay [13], the target named is Proto-oncogene tyrosine-protein kinase Src (Homo sapiens, UniProt P12931).

The source made the active and inactive calls. Cut-off read from the data, not from the text of the source, for most assays here: actives have a measured Kd and inactives only a lower limit.
Note: in the data inactive means no Kd found up to 30 µM.

Chromodomain-helicase-DNA-binding protein 4, sequence (Q14839 whole entry): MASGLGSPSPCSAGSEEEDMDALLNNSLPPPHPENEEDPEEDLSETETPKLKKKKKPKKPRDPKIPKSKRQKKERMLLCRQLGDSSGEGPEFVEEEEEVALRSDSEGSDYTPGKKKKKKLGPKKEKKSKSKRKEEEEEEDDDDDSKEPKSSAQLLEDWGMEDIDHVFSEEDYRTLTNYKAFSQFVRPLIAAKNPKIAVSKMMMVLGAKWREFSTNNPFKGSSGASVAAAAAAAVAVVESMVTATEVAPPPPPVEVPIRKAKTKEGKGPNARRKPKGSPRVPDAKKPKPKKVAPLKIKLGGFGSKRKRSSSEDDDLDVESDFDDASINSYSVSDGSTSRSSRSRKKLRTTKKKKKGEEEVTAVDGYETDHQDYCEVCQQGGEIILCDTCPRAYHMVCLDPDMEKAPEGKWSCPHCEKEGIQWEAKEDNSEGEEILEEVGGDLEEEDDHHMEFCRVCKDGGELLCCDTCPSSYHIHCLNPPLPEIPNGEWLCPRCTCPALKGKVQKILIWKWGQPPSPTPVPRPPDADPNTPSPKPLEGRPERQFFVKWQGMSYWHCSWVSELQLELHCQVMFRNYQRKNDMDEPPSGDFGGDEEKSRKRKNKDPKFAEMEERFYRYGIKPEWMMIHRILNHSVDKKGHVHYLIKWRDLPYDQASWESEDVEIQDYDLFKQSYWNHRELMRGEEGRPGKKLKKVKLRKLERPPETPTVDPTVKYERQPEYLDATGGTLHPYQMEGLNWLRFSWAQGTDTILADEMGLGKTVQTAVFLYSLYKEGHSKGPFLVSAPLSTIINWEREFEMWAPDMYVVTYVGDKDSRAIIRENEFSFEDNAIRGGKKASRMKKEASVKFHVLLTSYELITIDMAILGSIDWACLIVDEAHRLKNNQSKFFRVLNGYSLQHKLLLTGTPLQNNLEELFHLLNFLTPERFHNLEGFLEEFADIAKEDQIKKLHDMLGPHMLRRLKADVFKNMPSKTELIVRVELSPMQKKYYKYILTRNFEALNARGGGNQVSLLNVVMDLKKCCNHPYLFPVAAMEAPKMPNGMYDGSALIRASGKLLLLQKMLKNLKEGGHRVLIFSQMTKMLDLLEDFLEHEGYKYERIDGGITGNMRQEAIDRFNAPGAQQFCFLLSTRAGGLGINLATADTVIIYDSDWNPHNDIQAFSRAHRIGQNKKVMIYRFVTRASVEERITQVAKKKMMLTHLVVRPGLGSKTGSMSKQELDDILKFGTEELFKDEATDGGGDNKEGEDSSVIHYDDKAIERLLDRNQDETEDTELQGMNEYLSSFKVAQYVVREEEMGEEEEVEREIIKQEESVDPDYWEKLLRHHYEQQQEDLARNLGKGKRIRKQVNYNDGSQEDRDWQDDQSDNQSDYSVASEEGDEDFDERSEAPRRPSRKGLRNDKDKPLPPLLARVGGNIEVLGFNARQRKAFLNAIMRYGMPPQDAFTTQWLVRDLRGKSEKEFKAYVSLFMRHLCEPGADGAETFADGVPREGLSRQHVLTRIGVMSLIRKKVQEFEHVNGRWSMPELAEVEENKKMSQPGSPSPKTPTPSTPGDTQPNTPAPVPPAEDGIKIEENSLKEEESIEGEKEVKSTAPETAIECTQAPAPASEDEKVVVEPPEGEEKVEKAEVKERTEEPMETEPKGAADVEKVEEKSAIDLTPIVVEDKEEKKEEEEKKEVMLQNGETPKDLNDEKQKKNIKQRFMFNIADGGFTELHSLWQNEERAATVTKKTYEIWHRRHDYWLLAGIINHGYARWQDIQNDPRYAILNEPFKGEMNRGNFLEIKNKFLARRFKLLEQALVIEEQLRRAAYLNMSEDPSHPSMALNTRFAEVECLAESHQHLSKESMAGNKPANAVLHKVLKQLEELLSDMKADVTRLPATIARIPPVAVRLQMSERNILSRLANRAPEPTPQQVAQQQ
Maternal embryonic leucine zipper kinase, sequence (Q14680 whole entry): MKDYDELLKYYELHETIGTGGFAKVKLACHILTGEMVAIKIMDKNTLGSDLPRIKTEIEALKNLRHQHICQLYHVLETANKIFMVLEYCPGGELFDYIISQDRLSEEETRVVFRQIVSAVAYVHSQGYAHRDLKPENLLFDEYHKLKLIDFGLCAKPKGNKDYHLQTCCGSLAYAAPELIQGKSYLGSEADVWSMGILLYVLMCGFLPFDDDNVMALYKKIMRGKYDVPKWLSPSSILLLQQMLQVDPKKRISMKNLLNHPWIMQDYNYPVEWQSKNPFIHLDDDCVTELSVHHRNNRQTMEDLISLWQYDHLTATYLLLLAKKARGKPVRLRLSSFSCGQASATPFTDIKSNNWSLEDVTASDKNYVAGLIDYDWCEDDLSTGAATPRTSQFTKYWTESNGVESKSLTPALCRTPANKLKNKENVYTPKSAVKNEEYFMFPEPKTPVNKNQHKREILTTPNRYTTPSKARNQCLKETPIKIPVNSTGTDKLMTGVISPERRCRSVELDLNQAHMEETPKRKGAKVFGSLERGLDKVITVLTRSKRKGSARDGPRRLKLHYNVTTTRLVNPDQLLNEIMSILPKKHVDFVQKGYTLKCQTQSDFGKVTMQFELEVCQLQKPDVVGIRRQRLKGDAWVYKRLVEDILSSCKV
Casein kinase I isoform alpha, sequence (P48729 whole entry, canonical isoform): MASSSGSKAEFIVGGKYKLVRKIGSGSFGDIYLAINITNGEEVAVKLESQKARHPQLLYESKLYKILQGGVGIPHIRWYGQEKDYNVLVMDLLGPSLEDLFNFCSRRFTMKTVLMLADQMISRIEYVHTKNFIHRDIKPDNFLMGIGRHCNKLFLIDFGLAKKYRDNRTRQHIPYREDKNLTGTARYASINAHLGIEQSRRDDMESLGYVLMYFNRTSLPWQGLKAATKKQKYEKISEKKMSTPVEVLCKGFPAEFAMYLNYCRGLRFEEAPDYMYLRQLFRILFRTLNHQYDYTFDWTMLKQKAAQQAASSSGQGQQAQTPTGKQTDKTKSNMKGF
Bone morphogenetic protein receptor type-1A, sequence (P36894 whole entry): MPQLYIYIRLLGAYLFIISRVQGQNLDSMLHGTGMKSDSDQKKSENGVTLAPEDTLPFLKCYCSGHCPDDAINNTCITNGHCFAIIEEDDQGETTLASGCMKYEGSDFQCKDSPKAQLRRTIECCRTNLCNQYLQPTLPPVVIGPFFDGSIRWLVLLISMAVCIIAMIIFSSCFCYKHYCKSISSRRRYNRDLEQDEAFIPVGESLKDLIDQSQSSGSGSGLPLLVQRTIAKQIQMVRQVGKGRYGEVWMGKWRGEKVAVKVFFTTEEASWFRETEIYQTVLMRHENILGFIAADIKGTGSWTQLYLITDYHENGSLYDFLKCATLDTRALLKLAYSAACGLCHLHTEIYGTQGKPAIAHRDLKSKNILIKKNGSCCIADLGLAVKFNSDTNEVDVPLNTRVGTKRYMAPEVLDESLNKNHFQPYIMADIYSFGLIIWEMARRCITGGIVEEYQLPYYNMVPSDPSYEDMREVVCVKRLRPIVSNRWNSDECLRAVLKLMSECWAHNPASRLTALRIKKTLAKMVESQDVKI
LIM domain kinase 2, sequence (P53671 whole entry, the tested form may be a part): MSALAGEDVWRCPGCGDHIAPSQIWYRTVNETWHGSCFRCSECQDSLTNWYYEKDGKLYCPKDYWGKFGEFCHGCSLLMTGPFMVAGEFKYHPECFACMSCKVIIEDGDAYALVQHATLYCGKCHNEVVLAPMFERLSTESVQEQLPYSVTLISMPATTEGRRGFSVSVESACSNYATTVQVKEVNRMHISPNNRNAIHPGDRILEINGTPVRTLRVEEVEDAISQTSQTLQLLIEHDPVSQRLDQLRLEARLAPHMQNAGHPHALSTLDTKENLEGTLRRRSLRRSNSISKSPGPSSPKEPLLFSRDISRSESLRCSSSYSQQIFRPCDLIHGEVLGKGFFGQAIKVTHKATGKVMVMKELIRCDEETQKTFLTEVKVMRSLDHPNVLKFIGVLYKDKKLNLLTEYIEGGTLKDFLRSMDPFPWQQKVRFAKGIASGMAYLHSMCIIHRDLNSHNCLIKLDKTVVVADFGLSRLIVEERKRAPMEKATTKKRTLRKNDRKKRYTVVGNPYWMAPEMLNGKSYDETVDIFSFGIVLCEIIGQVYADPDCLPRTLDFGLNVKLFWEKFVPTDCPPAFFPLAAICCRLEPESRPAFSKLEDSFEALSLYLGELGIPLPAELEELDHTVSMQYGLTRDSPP
Mitogen-activated protein kinase 11, sequence (Q15759 whole entry): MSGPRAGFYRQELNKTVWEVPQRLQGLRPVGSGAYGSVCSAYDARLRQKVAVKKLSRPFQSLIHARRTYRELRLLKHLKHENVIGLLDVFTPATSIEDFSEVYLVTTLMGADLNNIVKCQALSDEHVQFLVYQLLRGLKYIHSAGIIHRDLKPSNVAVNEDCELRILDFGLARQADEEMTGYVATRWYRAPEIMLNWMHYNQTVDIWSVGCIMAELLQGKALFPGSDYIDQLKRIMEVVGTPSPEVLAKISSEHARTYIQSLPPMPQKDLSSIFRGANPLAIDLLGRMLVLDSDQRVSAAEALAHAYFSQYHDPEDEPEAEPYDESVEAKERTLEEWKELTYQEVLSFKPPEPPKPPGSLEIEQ
Proto-oncogene tyrosine-protein kinase Src, sequence (P12931 2-536 limits assumed): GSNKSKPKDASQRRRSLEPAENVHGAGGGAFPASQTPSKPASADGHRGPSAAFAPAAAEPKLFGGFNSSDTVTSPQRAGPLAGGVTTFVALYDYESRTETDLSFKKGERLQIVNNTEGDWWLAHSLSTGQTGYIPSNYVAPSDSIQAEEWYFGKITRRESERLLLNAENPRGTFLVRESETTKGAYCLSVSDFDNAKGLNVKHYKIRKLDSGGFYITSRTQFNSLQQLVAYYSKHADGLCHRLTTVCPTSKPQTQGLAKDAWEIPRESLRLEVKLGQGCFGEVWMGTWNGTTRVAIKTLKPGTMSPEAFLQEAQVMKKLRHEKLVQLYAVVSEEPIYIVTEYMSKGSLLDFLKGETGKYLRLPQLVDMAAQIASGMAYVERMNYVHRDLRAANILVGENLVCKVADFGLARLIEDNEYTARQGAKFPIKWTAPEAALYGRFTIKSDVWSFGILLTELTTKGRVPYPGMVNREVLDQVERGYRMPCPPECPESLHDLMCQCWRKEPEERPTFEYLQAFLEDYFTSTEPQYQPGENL

By Kd is commonly meant the concentration at which binding is half-saturated. In the case of `S=C(NCc1ccc2c(c1)OCO2)N1CCN(c2ncnc3c2oc2ccccc23)CC1` [AMUVATINIB], the Kd in assay [1], in assay [2], in assay [3], in [4], in assay [5] and in assay [6] was > 30 µM (inactive) throughout. For the same compound, the Kd in [7], in assay [8], in [9], in assay [10], in assay [11] and in assay [12] was > 30 µM (inactive) each time. Moreover, the Kd in assay [13] is > 30 µM (inactive).

For `COc1cccc2cc(-c3nc([C@H]4CC[C@H](C(=O)O)CC4)n4ncnc(N)c34)[nH]c12` [OSI-027], the Kd in assay [1], in assay [2], in assay [3], in assay [4], in assay [5] and in assay [6] was > 30 µM (inactive) each time. In addition, the Kd in [7], in [8], in assay [9], in assay [10], in assay [11] and in [12] was > 30 µM (inactive) in each case. In [13], the Kd is > 30 µM (inactive).

As to `CN1CCN(c2nc(C3=C(c4c[nH]c5ccccc45)C(=O)NC3=O)c3ccccc3n2)CC1` [SOTRASTAURIN], the Kd in assay [2], in assay [3], in assay [4], in assay [5], in assay [6] and in assay [7] was > 30 µM (inactive) throughout. In addition, the Kd in [8], in assay [9], in assay [10], in assay [11], in [12] and in [13] was > 30 µM (inactive) each time.

Turning to `CCN1CCN(Cc2ccc(Nc3ncc(F)c(-c4cc(F)c5nc(C)n(C(C)C)c5c4)n3)nc2)CC1` [ABEMACICLIB], the Kd in [2], in [3], in [4], in [5], in [6] and in [7] was > 30 µM (inactive) throughout. The Kd in assay [8], in assay [9], in [10], in assay [11], in assay [12] and in [13] was > 30 µM (inactive) throughout.

Take `CCc1nc(C(N)=O)c(Nc2ccc(N3CCC(N4CCN(C)CC4)CC3)c(OC)c2)nc1NC1CCOCC1` [GILTERITINIB]: the Kd in assay [1] was > 30 µM (inactive); in assay [2], > 30 µM (inactive); in assay [3] it was 0.536 µM (active); in [4], > 30 µM (inactive); in [5] it was > 30 µM (inactive); in [6], 3.15 µM (active). For the same compound, the Kd in assay [7], in assay [8], in [10], in [11], in [12] and in assay [13] was > 30 µM (inactive) in each case.

Take `COc1cc(F)c(F)c(Nc2ccc(I)cc2F)c1NS(=O)(=O)C1(C[C@H](O)CO)CC1` [REFAMETINIB]: the Kd in assay [2], in assay [3], in assay [4], in assay [5], in assay [6] and in assay [7] was > 30 µM (inactive) throughout. Further, the Kd in assay [8], in [9], in [10], in [12] and in assay [13] was > 30 µM (inactive) each time.

For the compound `Cc1cc(-c2cc(OC(=O)c3ccccc3)ccc2Cl)cc2nnc(Nc3ccc(OCCN4CCCC4)cc3)nc12` [TG100-801], the Kd in [1], in [2], in assay [3], in assay [4], in assay [5] and in assay [6] was > 30 µM (inactive) in each case. The Kd in [7], in assay [8], in assay [9], in [10], in assay [12] and in [13] was > 30 µM (inactive) each time.

Consider `CC1(COc2ccc3c(c2)ncn3-c2ccc3cccc(N4CCC(N)CC4)c3n2)COC1` [CRENOLANIB], for which the Kd in assay [1] was 1.33 µM; in [2], > 30 µM (inactive); in assay [3] it was > 30 µM (inactive); in assay [4] it was > 30 µM (inactive); in assay [5], > 30 µM (inactive); in assay [6] it was > 30 µM (inactive). The Kd in assay [7] was > 30 µM (inactive); in assay [8] it was > 30 µM (inactive); in assay [9], > 30 µM (inactive); in [10], > 30 µM (inactive); in assay [12], 4.23 µM (active); in assay [13], > 30 µM (inactive).
